This is an account of results in patent US20250236608A1, “EGFR INHIBITORS” (Blueprint Medicines Corporation, priority 2022, published 2025).

One assay has as its target EGFR L858R (Homo sapiens (Human), UniProt P00533, L858R). The assay can be described thus: Biochemical EGFR inhibition assay, EGFR L858R. The settings on record: Caliper mobility shift; 1.0 mM ATP or ATP Km; read-out: Enz EGFR_L858R IC50.
In assay [1] the target is pEGFR (Tyr1068) in PC-9 cells (Ex19Del) (Homo sapiens (Human), UniProt P00533, DEL746-750). The assay can be described thus: PC-9 pEGFR AlphaLISA assay. It counts as cell-based. The following applies: 4 hours incubation, p-EGFR (Tyr1068) AlphaLISA, read-out: Ext pEGFR_PC-9 Ex19Del IC50. The method, boiled down:
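Readout: AlphaLISA SureFire Ultra signal in cell lysates, with acceptor beads for 1.5-2 h and donor beads overnight at room temperature in the dark. Beforehand, unstimulated cells in 10% FBS medium received compounds (10 points, 4-fold steps) for 4 h at 37° C. IC50 came from percent inhibition curves.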

The next assay has as its target EGFR (d746-750) (Homo sapiens (Human), UniProt P00533, DEL746-750). Kind of assay: Biochemical EGFR inhibition assay, EGFR (d746-750). The settings on record: Caliper mobility shift; 1.0 mM ATP or ATP Km; read-out: Enz EGFR_Exon19-del746-750 IC50.

What is called IC50 is the concentration that inhibits the measured activity by half.

pEGFR (Tyr1068) in PC-9 cells (Ex19Del), sequence (P00533 other isoform, or with tags, fused parts or gaps del 746-750): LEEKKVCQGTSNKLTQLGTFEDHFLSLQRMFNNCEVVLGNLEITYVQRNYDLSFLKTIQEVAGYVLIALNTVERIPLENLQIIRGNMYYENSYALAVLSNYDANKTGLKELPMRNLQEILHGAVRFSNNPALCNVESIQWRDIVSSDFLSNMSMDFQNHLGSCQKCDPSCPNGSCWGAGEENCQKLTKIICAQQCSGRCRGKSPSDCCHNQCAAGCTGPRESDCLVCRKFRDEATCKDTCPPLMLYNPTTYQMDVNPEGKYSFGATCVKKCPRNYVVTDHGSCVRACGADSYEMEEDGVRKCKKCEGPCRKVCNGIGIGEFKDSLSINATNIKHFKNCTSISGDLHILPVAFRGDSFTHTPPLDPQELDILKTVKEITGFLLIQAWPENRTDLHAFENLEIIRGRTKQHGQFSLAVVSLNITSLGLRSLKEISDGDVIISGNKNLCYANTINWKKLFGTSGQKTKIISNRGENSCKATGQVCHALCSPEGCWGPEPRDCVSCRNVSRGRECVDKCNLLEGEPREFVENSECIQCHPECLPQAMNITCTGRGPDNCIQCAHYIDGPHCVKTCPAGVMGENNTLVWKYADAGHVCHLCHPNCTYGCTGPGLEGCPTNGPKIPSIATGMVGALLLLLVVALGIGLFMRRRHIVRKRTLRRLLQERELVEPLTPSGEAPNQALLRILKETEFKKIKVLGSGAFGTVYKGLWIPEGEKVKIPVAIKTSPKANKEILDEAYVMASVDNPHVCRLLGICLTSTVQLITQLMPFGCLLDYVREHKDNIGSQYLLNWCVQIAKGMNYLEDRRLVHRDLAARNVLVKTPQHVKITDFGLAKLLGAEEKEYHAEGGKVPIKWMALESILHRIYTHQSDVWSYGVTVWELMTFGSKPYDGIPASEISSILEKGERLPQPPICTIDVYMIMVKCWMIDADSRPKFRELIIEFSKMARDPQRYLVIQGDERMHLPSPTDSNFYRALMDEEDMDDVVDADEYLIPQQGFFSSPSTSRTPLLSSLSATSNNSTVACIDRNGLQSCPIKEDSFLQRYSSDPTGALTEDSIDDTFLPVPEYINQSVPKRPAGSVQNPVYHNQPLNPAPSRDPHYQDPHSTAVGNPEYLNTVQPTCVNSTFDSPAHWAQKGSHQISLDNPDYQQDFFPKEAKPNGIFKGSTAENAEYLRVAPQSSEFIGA
EGFR (d746-750), sequence (P00533 other isoform, or with tags, fused parts or gaps del 1-694/del 746-750 limits assumed): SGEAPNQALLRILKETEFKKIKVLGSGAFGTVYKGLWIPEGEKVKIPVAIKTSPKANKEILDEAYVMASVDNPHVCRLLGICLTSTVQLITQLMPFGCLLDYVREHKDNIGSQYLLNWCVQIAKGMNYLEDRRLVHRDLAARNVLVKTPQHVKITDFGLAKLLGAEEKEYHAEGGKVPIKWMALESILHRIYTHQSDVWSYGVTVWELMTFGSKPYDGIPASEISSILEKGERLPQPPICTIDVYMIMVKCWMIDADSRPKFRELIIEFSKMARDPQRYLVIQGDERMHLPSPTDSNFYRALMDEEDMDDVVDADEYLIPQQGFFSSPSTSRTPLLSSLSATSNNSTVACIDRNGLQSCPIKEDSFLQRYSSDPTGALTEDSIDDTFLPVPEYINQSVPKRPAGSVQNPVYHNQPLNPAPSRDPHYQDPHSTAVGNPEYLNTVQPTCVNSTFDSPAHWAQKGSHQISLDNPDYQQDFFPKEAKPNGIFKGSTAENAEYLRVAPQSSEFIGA
EGFR L858R, sequence (P00533 25-1210 L858R): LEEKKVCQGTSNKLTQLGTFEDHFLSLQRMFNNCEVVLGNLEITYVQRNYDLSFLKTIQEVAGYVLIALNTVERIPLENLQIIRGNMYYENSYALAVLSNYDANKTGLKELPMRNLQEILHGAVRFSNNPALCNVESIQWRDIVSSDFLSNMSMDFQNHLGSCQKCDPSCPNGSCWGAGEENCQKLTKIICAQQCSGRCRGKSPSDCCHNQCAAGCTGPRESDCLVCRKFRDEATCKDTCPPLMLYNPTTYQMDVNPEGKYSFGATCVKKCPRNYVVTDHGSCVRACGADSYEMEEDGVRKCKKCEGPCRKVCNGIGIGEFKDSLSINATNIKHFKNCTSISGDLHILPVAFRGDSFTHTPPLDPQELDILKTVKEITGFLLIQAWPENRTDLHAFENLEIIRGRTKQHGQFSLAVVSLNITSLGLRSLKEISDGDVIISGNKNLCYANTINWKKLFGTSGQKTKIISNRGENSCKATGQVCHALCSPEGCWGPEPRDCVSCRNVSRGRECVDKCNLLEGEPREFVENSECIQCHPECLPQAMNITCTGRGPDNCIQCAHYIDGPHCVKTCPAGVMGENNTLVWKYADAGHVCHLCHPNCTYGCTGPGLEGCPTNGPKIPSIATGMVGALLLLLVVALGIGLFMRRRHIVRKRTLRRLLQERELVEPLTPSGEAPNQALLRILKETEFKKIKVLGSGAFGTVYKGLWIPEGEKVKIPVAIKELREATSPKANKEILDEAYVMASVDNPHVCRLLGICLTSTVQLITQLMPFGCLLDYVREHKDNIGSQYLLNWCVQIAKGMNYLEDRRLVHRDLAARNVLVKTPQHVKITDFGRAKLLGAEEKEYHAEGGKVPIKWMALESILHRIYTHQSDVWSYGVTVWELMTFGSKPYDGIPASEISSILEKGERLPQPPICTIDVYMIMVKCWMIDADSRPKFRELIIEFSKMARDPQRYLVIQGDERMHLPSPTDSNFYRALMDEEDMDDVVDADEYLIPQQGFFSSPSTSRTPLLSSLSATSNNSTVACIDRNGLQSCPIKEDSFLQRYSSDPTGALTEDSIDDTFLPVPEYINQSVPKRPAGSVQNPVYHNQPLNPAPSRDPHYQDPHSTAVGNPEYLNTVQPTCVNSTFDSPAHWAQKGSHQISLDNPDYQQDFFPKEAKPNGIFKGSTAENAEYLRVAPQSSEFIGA

On to `COc1cc2ncnc(-c3cn(C)nc3-c3ccccc3)c2nc1O[C@@H](C)c1nnc(C)o1` [Example 37, (S)-2-(1-((7-methoxy-4-(1-methyl-3-phenyl-1H-pyrazol-4-yl)pyrido[3,2-d]pyrimidin-6-yl)oxy)ethyl)-5-methyl-1,3,4-oxadiazole], for which the IC50 came to 5.3 nM at EGFR L858R, 4.6 nM in assay [1] and 2 nM at EGFR (d746-750).

In the case of `COc1cc2ncnc(-c3cn(C)nc3-c3ccccc3)c2nc1O[C@H](C)c1nnc(C)o1` [Example 38, (R)-2-(1-((7-methoxy-4-(1-methyl-3-phenyl-1H-pyrazol-4-yl)pyrido[3,2-d]pyrimidin-6-yl)oxy)ethyl)-5-methyl-1,3,4-oxadiazole], the half-maximal inhibitory concentration (IC50) on EGFR L858R came out at 5.9 nM; in assay [1], 25.6 nM; at EGFR (d746-750), 6.7 nM.

`COc1cc2ncnc(-c3cn(C)nc3-c3ccccc3)c2nc1O[C@@H](C)c1cocn1` [Example 39, (S)-4-(1-((7-methoxy-4-(1-methyl-3-phenyl-1H-pyrazol-4-yl)pyrido[3,2-d]pyrimidin-6-yl)oxy)ethyl) oxazole]: the values for the IC50 (at EGFR L858R; in assay [1]; at EGFR (d746-750)) were 3.5 nM, 5.3 nM and 2.1 nM, respectively.

With `COc1cc2ncnc(-c3cn(C)nc3-c3ccccc3)c2nc1O[C@H](C)c1cocn1` [Example 40, (R)-4-(1-((7-methoxy-4-(1-methyl-3-phenyl-1H-pyrazol-4-yl)pyrido[3,2-d]pyrimidin-6-yl)oxy)ethyl) oxazole], the IC50 was determined as 4.2 nM at EGFR L858R, 1.5 nM in assay [1] and 2.9 nM at EGFR (d746-750).

As for `COc1cc2ncnc(-c3cn(C)nc3-c3ccccc3)c2nc1O[C@H](C)c1cnnn1C` [Example 41, (R)-7-methoxy-6-(1-(1-methyl-1H-1,2,3-triazol-5-yl)ethoxy)-4-(1-methyl-3-phenyl-1H-pyrazol-4-yl)pyrido[3,2-d]pyrimidine], the IC50 on EGFR L858R turned out to be 8.3 nM; in assay [1], 9.2 nM; on EGFR (d746-750), 4.1 nM.

`COc1cc2ncnc(-c3cn(C)nc3-c3ccccc3)c2nc1O[C@@H](C)c1cnnn1C` [Example 42, (S)-7-methoxy-6-(1-(1-methyl-1H-1,2,3-triazol-5-yl)ethoxy)-4-(1-methyl-3-phenyl-1H-pyrazol-4-yl)pyrido[3,2-d]pyrimidine]: the IC50 at EGFR L858R came to 9.6 nM; in assay [1] it was 43.9 nM; on EGFR (d746-750), 2.9 nM.

With `COc1cc2ncnc(-c3cn(C)nc3-c3ccccc3)c2nc1O[C@H](C)c1cn(C)nn1` [Example 43, (R)-7-methoxy-6-(1-(1-methyl-1H-1,2,3-triazol-4-yl)ethoxy)-4-(1-methyl-3-phenyl-1H-pyrazol-4-yl)pyrido[3,2-d]pyrimidine], the IC50 worked out at 1.4 nM on EGFR L858R, 1.9 nM in assay [1] and 0.8 nM on EGFR (d746-750).

On to `COc1cc2ncnc(-c3cn(C)nc3-c3ccccc3)c2nc1O[C@@H](C)c1cn(C)nn1` [Example 44, (S)-7-methoxy-6-(1-(1-methyl-1H-1,2,3-triazol-4-yl)ethoxy)-4-(1-methyl-3-phenyl-1H-pyrazol-4-yl)pyrido[3,2-d]pyrimidine], for which the 50% inhibitory concentration (IC50) was found to be 3.9 nM at EGFR L858R, 14.6 nM in assay [1] and 2.4 nM at EGFR (d746-750).

As for `COc1cc2ncnc(-c3cn(C)nc3-c3ccccc3)c2nc1O[C@@H](C)c1nnnn1C` [Example 45, (S)-7-methoxy-6-(1-(1-methyl-1H-tetrazol-5-yl)ethoxy)-4-(1-methyl-3-phenyl-1H-pyrazol-4-yl)pyrido[3,2-d]pyrimidine], the IC50 is 9.4 nM at EGFR L858R, 14.3 nM in assay [1] and 3.6 nM on EGFR (d746-750).

As for `COc1cc2ncnc(-c3cn(C)nc3-c3ccccc3)c2nc1O[C@H](C)c1nnnn1C` [Example 46, (R)-7-methoxy-6-(1-(1-methyl-1H-tetrazol-5-yl)ethoxy)-4-(1-methyl-3-phenyl-1H-pyrazol-4-yl)pyrido[3,2-d]pyrimidine], the values for the IC50 (at EGFR L858R; in assay [1]; on EGFR (d746-750)) were 4.4 nM, 11.7 nM and 1.9 nM, respectively.

`COc1cc2ncnc(-c3cn(C)nc3-c3ccccc3)c2nc1O[C@@H](C)c1cccnc1F` [Example 47, (S)-6-(1-(2-fluoropyridin-3-yl)ethoxy)-7-methoxy-4-(1-methyl-3-phenyl-1H-pyrazol-4-yl)pyrido[3,2-d]pyrimidine]: the concentration for half-maximal inhibition (IC50) on EGFR L858R worked out at 2.6 nM; in assay [1] it was 2.1 nM; at EGFR (d746-750), 1.4 nM.

With `COc1cc2ncnc(-c3cn(C)nc3-c3ccccc3)c2nc1O[C@H](C)c1cccnc1F` [Example 48, (R)-6-(1-(2-fluoropyridin-3-yl)ethoxy)-7-methoxy-4-(1-methyl-3-phenyl-1H-pyrazol-4-yl)pyrido[3,2-d]pyrimidine], the IC50 on EGFR L858R is 1.8 nM; in assay [1] it was 1.1 nM; at EGFR (d746-750), 1.4 nM.

Take `COc1cc2ncnc(-c3cn(C)nc3-c3ccccc3)c2nc1OC(=O)N1CCN(C)C[C@@H]1C` [Example 55, 7-methoxy-4-(1-methyl-3-phenyl-1H-pyrazol-4-yl)pyrido[3,2-d]pyrimidin-6-yl (S)-2,4-dimethylpiperazine-1-carboxylate]: the IC50 is 5 nM on EGFR L858R, 3.6 nM in assay [1] and 2 nM at EGFR (d746-750).

As to `COc1cc2ncnc(-c3cn(C)nc3-c3ccccc3)c2nc1OC(=O)N1CCOC[C@H]1C` [Example 56, 7-methoxy-4-(1-methyl-3-phenyl-1H-pyrazol-4-yl)pyrido[3,2-d]pyrimidin-6-yl (R)-3-methylmorpholine-4-carboxylate], the results for the IC50 (at EGFR L858R; in assay [1]; at EGFR (d746-750)) were 3.4 nM, 3 nM and 2.1 nM, respectively.

Turning to `COc1cc2ncnc(-c3cn(C)nc3-c3ccccc3)c2cc1OC(=O)N1CCN(C)CC1C` (stereo not drawn) [Example 57, 7-methoxy-4-(1-methyl-3-phenyl-1H-pyrazol-4-yl)quinazolin-6-yl 2,4-dimethylpiperazine-1-carboxylate], the half-maximal inhibitory concentration (IC50) amounted to 2.3 nM on EGFR L858R, 2.2 nM in assay [1] and 1.7 nM on EGFR (d746-750).

Consider `COc1cc2ncnc(-c3cn(CC(F)(F)F)nc3-c3ccccc3)c2cc1OC(=O)N1CCN(C)C[C@@H]1C` [Example 60, 7-methoxy-4-(3-phenyl-1-(2,2,2-trifluoroethyl)-1H-pyrazol-4-yl)quinazolin-6-yl(S)-2,4-dimethylpiperazine-1-carboxylate], for which the IC50 on EGFR L858R was 5.1 nM; in assay [1], 3.6 nM; at EGFR (d746-750) it was 3.6 nM.

On to `COc1cc2ncnc(-c3cn(C)nc3-c3ccccc3)c2cc1OC(=O)N1CCOC[C@H]1C` [Example 61, 7-methoxy-4-(1-methyl-3-phenyl-1H-pyrazol-4-yl)quinazolin-6-yl (R)-3-methylmorpholine-4-carboxylate], for which the values for the half-inhibitory concentration (IC50) (at EGFR L858R; in assay [1]; at EGFR (d746-750)) were 4.5 nM, 7.9 nM and 2.3 nM, respectively.

For `COc1cc2ncnc(-c3cn(C)nc3-c3ccccc3)c2cc1OC(=O)N1CCOC[C@@H]1C` [Example 62, 7-methoxy-4-(1-methyl-3-phenyl-1H-pyrazol-4-yl)quinazolin-6-yl (S)-3-methylmorpholine-4-carboxylate], the IC50 on EGFR L858R came to 4.2 nM; in assay [1], 8.7 nM; at EGFR (d746-750) it was 2.5 nM.

In the case of `COc1cc2ncnc(-c3cn(C)nc3-c3ccccc3)c2cc1OC(=O)N1[C@H](C)COC[C@@H]1C` [Example 63, 7-methoxy-4-(1-methyl-3-phenyl-1H-pyrazol-4-yl)quinazolin-6-yl (3S,5R)-3,5-dimethylmorpholine-4-carboxylate], the values for the IC50 (at EGFR L858R; in assay [1]; at EGFR (d746-750)) were 4.8 nM, 2.5 nM and 2.4 nM, respectively.

With `COc1cc2ncnc(-c3cn(C)nc3-c3ccccc3)c2cc1OC(=O)N1[C@@H](C)COC[C@@H]1C` [Example 64, 7-methoxy-4-(1-methyl-3-phenyl-1H-pyrazol-4-yl)quinazolin-6-yl (3S,5S)-3,5-dimethylmorpholine-4-carboxylate], the IC50 was 6.1 nM at EGFR L858R, 13.7 nM in assay [1] and 2.1 nM on EGFR (d746-750).

On to `COc1cc2ncnc(-c3cn(C)nc3-c3ccccc3)c2cc1OC(=O)N1CCOCC12CC2` [Example 65, 7-methoxy-4-(1-methyl-3-phenyl-1H-pyrazol-4-yl)quinazolin-6-yl 7-oxa-4-azaspiro[2.5]octane-4-carboxylate], for which the IC50 on EGFR L858R was 6.1 nM; in assay [1], 2.5 nM; on EGFR (d746-750), 2.5 nM.

Take `COc1cc2ncnc(-c3cn(C)nc3-c3ccccc3F)c2cc1OC(=O)N1CCN(C)C[C@@H]1C` [Example 66, 4-(3-(2-fluorophenyl)-1-methyl-1H-pyrazol-4-yl)-7-methoxyquinazolin-6-yl (S)-2,4-dimethylpiperazine-1-carboxylate]: the IC50 was 2.9 nM on EGFR L858R, 5.2 nM in assay [1] and 2.2 nM at EGFR (d746-750).

`COc1cc2ncnc(-c3cn(C)nc3-c3c(F)cccc3F)c2cc1OC(=O)N1CCOC[C@@H]1C` [Example 67, 4-(3-(2,6-difluorophenyl)-1-methyl-1H-pyrazol-4-yl)-7-methoxyquinazolin-6-yl (S)-3-methylmorpholine-4-carboxylate]: the figures for the IC50 (on EGFR L858R; in assay [1]; at EGFR (d746-750)) were 8.3 nM, 12.4 nM and 2.8 nM, respectively.

Turning to `COc1cc2ncnc(-c3cn(C4COC4)nc3-c3ccccc3)c2cc1OC(=O)N1CCOC[C@@H]1C` [Example 68, 7-methoxy-4-(1-(oxetan-3-yl)-3-phenyl-1H-pyrazol-4-yl)quinazolin-6-yl (S)-3-methylmorpholine-4-carboxylate], the IC50 on EGFR L858R was determined as 6.3 nM; in assay [1], 3 nM; on EGFR (d746-750), 2.7 nM.
